The values below come from patent US11077194B2, “Nitric oxide releasing pharmaceutical compositions” (Novan, Inc., priority 2012, dated 2021).

The assay concerns oxazolone-induced ear swelling. The assay is described as follows: Oxazolone-induced ear swelling assay (model of allergic contact dermatitis). The class given is in vivo, BALB/c mice. Particulars: TOP. The procedure: Groups of 5 BALB/c male mice weighing 22±2 g were used. The animals were sensitized by application of oxazolone (100 μL, 1.5% in acetone) to their preshaved abdominal surface. Seven days later, test substances (20 mg/ear) and vehicle (20 μL/ear) were applied topically to the anterior and posterior surfaces of the right ear 30 min before and 15 min after oxazolone (1%, 20 μL/ear) challenge. Ear swelling was measured with a Dyer model micrometer gauge at 24 hours after oxazolone challenge as an index of inflammation. Ear edema was calculated by subtracting the thickness of the left ear (normal control) from the right ear (treated ear). Percent inhibition was calculated according to the formula: (Ic−It)/Ic×100, where Ic and It refers to increase of ear thickness (mm) in control and treated mice, respectively. One-way ANOVA and Dunnett's test were used to determine statistical significance between vehicle control and treated groups. Significance is set at P<0.05.
Test articles (0.2% and 2% Nitricil™ NVN1 Ointment) described in Example 6 were evaluated for possible anti-inflammatory activity in the oxazolone-induced ear swelling assay in BALB/c mice, a model of allergic contact dermatitis. Test substances and vehicles were each administered topically (TOP) at 30 minutes before and 15 minutes after challenge with the second application of oxazolone.
The test system used was a 7-day oxazolone-induced ear swelling assay. Oxazolone-induced ear swelling is useful as a model of inflammation. […] Ear swelling was measured with a Dyer model micrometer gauge at 24 hours after oxazolone challenge as an index of inflammation. Ear edema was calculated by subtracting the thickness of the left ear (normal control) from the right ear (treated ear) (Table 18). […]
Percent inhibition was calculated according to the formula: (Ic−It)/Ic×100, where Ic and It refer to increase of ear thickness (mm) in control and treated mice, respectively. […]

Marks after values point to notes of the source that are not given here.

Turning to `C[C@@H]1C[C@H]2[C@@H]3CCC4=CC(=O)C=C[C@]4(C)[C@@]3(F)[C@@H](O)C[C@]2(C)[C@@]1(O)C(=O)CO` [Dexamethasone], the “Ear Swelling % Inhibition (vs. Vehicle A, acetone/ethanol 1/1)” value (Example 7 study, ointments 20 mg/ear × 2, dexamethasone 0.3 mg/ear × 2, 24 hours after challenge) is listed as 85* %. The “% inhibition of oxazolone-induced ear swelling vs acetone/ethanol vehicle” value (Example 9 study, ointments 20 mg/ear × 2, dexamethasone 0.1 mg/ear × 2) came out at 86%. For the same molecule, the “Net Swelling on Right Ear (Mean ± SEM)” value (Example 9 study, ointments 20 mg/ear × 2, dexamethasone 0.1 mg/ear × 2, 24 hours after challenge) came out at 3.2 ± 0.4 × 0.01 mm.
